From article PMC7419507, “In vitro Cas9-assisted editing of modular polyketide synthase genes to produce desired natural product derivatives” (Nature Communications, 2020)
Values joined by “and” are separate entries in the source; they are usually repeats but may differ in a detail not shown here. Identical values can stand only once.

Experiments:
T lymphoma Jurkat cells = assay: Cytotoxicity assay (CellTiter-Glo, 72 h), Jurkat; format: cell-based; details: raw data (replicates)
Method in brief: (§1)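 Incubate 4 h at 37 °C, 5% CO2. Add 2-fold compound dilutions, 0.5% DMSO. After 72 h, read CellTiter-Glo luminescence.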

[1] = Cytotoxicity assay (CellTiter-Glo, 72 h), Jurkat; format: cell-based; details: human, Jurkat cells (T lymphoma), raw data (replicates)
Method in brief: as §1

[2] = system: malignant pleural mesothelioma MESO-1 cells; assay: Cytotoxicity assay (CellTiter-Glo, 72 h), MESO-1; format: cell-based; details: raw replicate data
Method in brief: as §1

[3] = Cytotoxicity assay (CellTiter-Glo, 72 h), MESO-1; format: cell-based; details: human, MESO-1 malignant pleural mesothelioma cells, raw replicate data, read-out: MESO1 viability (%)
Method in brief: as §1

[4] = system: Jurkat, SKOV-3 and MESO-1 cells; assay: Cytotoxicity assay, statements for all tested cell lines together; format: cell-based; details: Jurkat, SKOV-3 and MESO-1 cells, 72 h
Method in brief: as §1

[5] = Cytotoxicity assay (CellTiter-Glo, 72 h), SKOV-3; format: cell-based, human; details: human, raw replicate data, read-out: SKOV3 viability (%)
Method in brief: as §1

[6] = system: human ovarian adenocarcinoma SKOV-3 cells; assay: Cytotoxicity assay (CellTiter-Glo, 72 h), SKOV-3; format: cell-based; details: raw replicate data
Method in brief: as §1

CO[C@@H]1C[C@H](C[C@@H](C)[C@@H]2CC(=O)[C@H](C)/C=C(\C)[C@@H](O)[C@@H](OC)C(=O)[C@H](C)C[C@H](C)/C=C/C=C/C=C(\C)[C@H](O)C[C@@H]3CC[C@@H](C)[C@@](O)(O3)C(=O)C(=O)N3CCCC[C@H]3C(=O)O2)CC[C@H]1O [Compound 17, (16R)-16-O-demethyl rapamycin]
Jurkat viability (%) (T lymphoma Jurkat cells; conc 9.53674e-5 uM): 104.2% and 104.9% | Jurkat viability (%) (T lymphoma Jurkat cells; conc 0.000190735 uM): 98.3% and 107.4% | Jurkat viability (%) (T lymphoma Jurkat cells; conc 0.00038147 uM): 107.2% and 107.3% | Jurkat viability (%) (T lymphoma Jurkat cells; conc 0.000762939 uM): 99.4% | Jurkat viability (%) (T lymphoma Jurkat cells; conc 0.00152588 uM): 99.3% and 104.0% | Jurkat viability (%) (T lymphoma Jurkat cells; conc 0.00305176 uM): 97.0% and 104.1% | Jurkat viability (%) (T lymphoma Jurkat cells; conc 0.00610352 uM): 89.4% and 97.3% | Jurkat viability (%) (T lymphoma Jurkat cells; conc 0.012207 uM): 81.9% and 78.2% | Jurkat viability (%) (T lymphoma Jurkat cells; conc 0.0244141 uM): 72.3% and 67.5% | Jurkat viability (%) (T lymphoma Jurkat cells; conc 0.0488281 uM): 50.1% and 57.1% | Jurkat viability (%) (T lymphoma Jurkat cells; conc 0.0976562 uM): 39.4% and 41.6% | Jurkat viability (%) (T lymphoma Jurkat cells; conc 0.195312 uM): 33.7% and 37.9% | Jurkat viability (%) (T lymphoma Jurkat cells; conc 0.390625 uM): 35.4% and 34.2% | Jurkat viability (%) (T lymphoma Jurkat cells; conc 0.78125 uM): 31.2% and 32.6% | Jurkat viability (%) (T lymphoma Jurkat cells; conc 1.5625 uM): 28.2% and 33.2% | Jurkat viability (%) (T lymphoma Jurkat cells; conc 3.125 uM): 27.7% and 29.4% | Jurkat viability (%) (T lymphoma Jurkat cells; conc 6.25 uM): 29.5% | Jurkat viability (%) (T lymphoma Jurkat cells; conc 12.5 uM): 26.8% | Jurkat viability (%) (T lymphoma Jurkat cells; conc 25 uM): 30.6% and 29.0% | Jurkat viability (%) (T lymphoma Jurkat cells; conc 50 uM): 21.7% and 20.3% | viability at 72 h, 9.53674e-05 uM ([1]; conc 9.53674e-5 uM): 98.1% | viability at 72 h, 0.000190735 uM ([1]; conc 0.000190735 uM): 101% | viability at 72 h, 0.00038147 uM ([1]; conc 0.00038147 uM): 107% | viability at 72 h, 0.000762939 uM ([1]; conc 0.000762939 uM): 100% | viability at 72 h, 0.00152588 uM ([1]; conc 0.00152588 uM): 106% | viability at 72 h, 0.00305176 uM ([1]; conc 0.00305176 uM): 95.3% | viability at 72 h, 0.00610352 uM ([1]; conc 0.00610352 uM): 96.3% | viability at 72 h, 0.012207 uM ([1]; conc 0.012207 uM): 74.7% | viability at 72 h, 0.0244141 uM ([1]; conc 0.0244141 uM): 79% | viability at 72 h, 0.0488281 uM ([1]; conc 0.0488281 uM): 40% | viability at 72 h, 0.0976562 uM ([1]; conc 0.0976562 uM): 39.6% | viability at 72 h, 0.195312 uM ([1]; conc 0.195312 uM): 36.3% | viability at 72 h, 0.390625 uM ([1]; conc 0.390625 uM): 32.4% | viability at 72 h, 0.78125 uM ([1]; conc 0.78125 uM): 32.4% | viability at 72 h, 1.5625 uM ([1]; conc 1.5625 uM): 29.2% | viability at 72 h, 3.125 uM ([1]; conc 3.125 uM): 28.8% | viability at 72 h, 6.25 uM ([1]; conc 6.25 uM): 28.5% | viability at 72 h, 12.5 uM ([1]; conc 12.5 uM): 30.5% | viability at 72 h, 25 uM ([1]; conc 25 uM): 28.8% | viability at 72 h, 50 uM ([1]; conc 50 uM): 21.6% | MESO1 viability (%) ([2]; conc 9.53674e-5 uM): 101.2% and 92.1% | MESO1 viability (%) ([2]; conc 0.000190735 uM): 91.6% and 98.7% | MESO1 viability (%) ([2]; conc 0.00038147 uM): 104.8% and 96.5% | MESO1 viability (%) ([2]; conc 0.000762939 uM): 94.3% and 95.5% | MESO1 viability (%) ([2]; conc 0.00152588 uM): 93.6% and 93.5% | MESO1 viability (%) ([2]; conc 0.00305176 uM): 90.4% and 91.1% | MESO1 viability (%) ([2]; conc 0.00610352 uM): 88.7% and 90.9% | MESO1 viability (%) ([2]; conc 0.012207 uM): 91.2% | MESO1 viability (%) ([2]; conc 0.0244141 uM): 80.2% and 88.3% | MESO1 viability (%) ([2]; conc 0.0488281 uM): 80.6% and 75.2% | MESO1 viability (%) ([2]; conc 0.0976562 uM): 77.6% and 79.5% | MESO1 viability (%) ([2]; conc 0.195312 uM): 74.7% and 70.5% | MESO1 viability (%) ([2]; conc 0.390625 uM): 76.8% and 75.4% | MESO1 viability (%) ([2]; conc 0.78125 uM): 70.1% and 72.2% | MESO1 viability (%) ([2]; conc 1.5625 uM): 74.3% and 71.9% | MESO1 viability (%) ([2]; conc 3.125 uM): 66.5% and 67.5% | MESO1 viability (%) ([2]; conc 6.25 uM): 73.9% and 73.5% | MESO1 viability (%) ([2]; conc 12.5 uM): 65.3% and 66.5% | MESO1 viability (%) ([2]; conc 25 uM): 64.8% and 66.6% | MESO1 viability (%) ([2]; conc 50 uM): 62.7% and 65.8% | viability at 72 h, 9.53674e-05 uM ([3]; conc 9.53674e-5 uM): 103% | viability at 72 h, 0.000190735 uM ([3]; conc 0.000190735 uM): 89.1% | viability at 72 h, 0.00038147 uM ([3]; conc 0.00038147 uM): 100% | viability at 72 h, 0.000762939 uM ([3]; conc 0.000762939 uM): 97.1% | viability at 72 h, 0.00152588 uM ([3]; conc 0.00152588 uM): 98.3% | viability at 72 h, 0.00305176 uM ([3]; conc 0.00305176 uM): 92.9% | viability at 72 h, 0.00610352 uM ([3]; conc 0.00610352 uM): 89.6% | viability at 72 h, 0.012207 uM ([3]; conc 0.012207 uM): 83.5% | viability at 72 h, 0.0244141 uM ([3]; conc 0.0244141 uM): 86.9% | viability at 72 h, 0.0488281 uM ([3]; conc 0.0488281 uM): 85.1% | viability at 72 h, 0.0976562 uM ([3]; conc 0.0976562 uM): 78.9% | viability at 72 h, 0.195312 uM ([3]; conc 0.195312 uM): 71.5% | viability at 72 h, 0.390625 uM ([3]; conc 0.390625 uM): 79.6% | viability at 72 h, 0.78125 uM ([3]; conc 0.78125 uM): 73.1% | viability at 72 h, 1.5625 uM ([3]; conc 1.5625 uM): 71.7% | viability at 72 h, 3.125 uM ([3]; conc 3.125 uM): 72.9% | viability at 72 h, 6.25 uM ([3]; conc 6.25 uM): 74.2% | viability at 72 h, 12.5 uM ([3]; conc 12.5 uM): 72.1% | viability at 72 h, 25 uM ([3]; conc 25 uM): 67.4% | viability at 72 h, 50 uM ([3]; conc 50 uM): 61.5% | Effect on cell viability, in words [4]: slightly suppressed the cell viabilities | viability at 72 h, 9.53674e-05 uM ([5]; SKOV-3 cells (ovarian adenocarcinoma), conc 9.53674e-5 uM): 108% | viability at 72 h, 0.000190735 uM ([5]; SKOV-3 cells (ovarian adenocarcinoma), conc 0.000190735 uM): 88.6% | viability at 72 h, 0.00038147 uM ([5]; SKOV-3 cells (ovarian adenocarcinoma), conc 0.00038147 uM): 109% | viability at 72 h, 0.000762939 uM ([5]; SKOV-3 cells (ovarian adenocarcinoma), conc 0.000762939 uM): 108% | viability at 72 h, 0.00152588 uM ([5]; SKOV-3 cells (ovarian adenocarcinoma), conc 0.00152588 uM): 108% | viability at 72 h, 0.00305176 uM ([5]; SKOV-3 cells (ovarian adenocarcinoma), conc 0.00305176 uM): 107% | viability at 72 h, 0.00610352 uM ([5]; SKOV-3 cells (ovarian adenocarcinoma), conc 0.00610352 uM): 103% | viability at 72 h, 0.012207 uM ([5]; SKOV-3 cells (ovarian adenocarcinoma), conc 0.012207 uM): 97.7% | viability at 72 h, 0.0244141 uM ([5]; SKOV-3 cells (ovarian adenocarcinoma), conc 0.0244141 uM): 95.9% | viability at 72 h, 0.0488281 uM ([5]; SKOV-3 cells (ovarian adenocarcinoma), conc 0.0488281 uM): 84.3% | viability at 72 h, 0.0976562 uM ([5]; SKOV-3 cells (ovarian adenocarcinoma), conc 0.0976562 uM): 77.9% | viability at 72 h, 0.195312 uM ([5]; SKOV-3 cells (ovarian adenocarcinoma), conc 0.195312 uM): 70% | viability at 72 h, 0.390625 uM ([5]; SKOV-3 cells (ovarian adenocarcinoma), conc 0.390625 uM): 78.2% | viability at 72 h, 12.5 uM ([5]; SKOV-3 cells (ovarian adenocarcinoma), conc 12.5 uM): 65% | viability at 72 h, 25 uM ([5]; SKOV-3 cells (ovarian adenocarcinoma), conc 25 uM): 64.3% | viability at 72 h, 50 uM ([5]; SKOV-3 cells (ovarian adenocarcinoma), conc 50 uM): 62.5% | viability at 72 h, 0.78125 uM ([5]; SKOV-3 ovarian adenocarcinoma cells, conc 0.78125 uM): 71.6% | viability at 72 h, 1.5625 uM ([5]; SKOV-3 ovarian adenocarcinoma cells, conc 1.5625 uM): 72.2% | viability at 72 h, 3.125 uM ([5]; SKOV-3 ovarian adenocarcinoma cells, conc 3.125 uM): 67.3% | viability at 72 h, 6.25 uM ([5]; SKOV-3 ovarian adenocarcinoma cells, conc 6.25 uM): 66.2% | SKOV3 viability (%) ([6]; conc 9.53674e-5 uM): 109.3% and 114.5% | SKOV3 viability (%) ([6]; conc 0.000190735 uM): 90.8% and 99.6% | SKOV3 viability (%) ([6]; conc 0.00038147 uM): 115.4% and 113.9% | SKOV3 viability (%) ([6]; conc 0.000762939 uM): 109.0% and 102.3% | SKOV3 viability (%) ([6]; conc 0.00152588 uM): 112.3% and 106.1% | SKOV3 viability (%) ([6]; conc 0.00305176 uM): 107.9% | SKOV3 viability (%) ([6]; conc 0.00610352 uM): 101.8% and 106.6% | SKOV3 viability (%) ([6]; conc 0.012207 uM): 96.6% and 104.0% | SKOV3 viability (%) ([6]; conc 0.0244141 uM): 95.8% | SKOV3 viability (%) ([6]; conc 0.0488281 uM): 79.4% and 88.5% | SKOV3 viability (%) ([6]; conc 0.0976562 uM): 86.2% and 76.7% | SKOV3 viability (%) ([6]; conc 0.195312 uM): 69.8% and 72.4% | SKOV3 viability (%) ([6]; conc 0.390625 uM): 81.8% and 79.5% | SKOV3 viability (%) ([6]; conc 0.78125 uM): 70.7% | SKOV3 viability (%) ([6]; conc 1.5625 uM): 65.2% and 67.1% | SKOV3 viability (%) ([6]; conc 3.125 uM): 69.1% | SKOV3 viability (%) ([6]; conc 6.25 uM): 64.7% and 66.1% | SKOV3 viability (%) ([6]; conc 12.5 uM): 62.1% and 61.3% | SKOV3 viability (%) ([6]; conc 25 uM): 65.7% and 67.6% | SKOV3 viability (%) ([6]; conc 50 uM): 57.2% and 61.6%
